Experimental data as given in paper PMC4604621, “Cytotoxicity, nitric oxide and acetylcholinesterase inhibitory activity of three limonoids isolated from Trichilia welwitschii (Meliaceae)” (Biological Research, 2015).
Values after ≈ are worked out from the molar mass of the structure shown. Where two headings read alike, the source gives them in different places.

Legend:
[1] = MTT cytotoxicity assay on Vero cells; type: cell-based; conditions: monkey
Procedure: (§1) Cells lines including human monocytic THP-1, murine macrophage RAW 264.7 and the Vero monkey kidney cell lines were obtained from the American Type Culture Collection (Rockville, MD, USA). They were maintained in DMEM supplemented with 10 % fetal calf serum (FCS) and 1 % penicillin/streptomycin/fongizone (PSF) under standard cell culture conditions at 37 °C and 5 % CO2 in a humidified environment.
(§2) The cytotoxicity of compounds was determined by the 3-[4,5-dimethylthiazol-2-yl]-2,5-diphenyltetrazolium (MTT) assay as previously described. The selectivity index (SI) values were calculated by dividing cytotoxicity LC50 values of normal Vero cells by the LC50 of cancer cells in the same units.

[2] = target: T1, acetylcholinesterase (AChE) enzyme from electric eels (Electrophorus electricus, UniProt O42275); assay: biochemical; conditions: for inhibition at 6.25 µg/mL / inhibition at 12.5 µg/mL / inhibition at 25 µg/mL / inhibition at 50 µg/mL: read-out: % AChE inhibition; for IC50: read-out: AChE inhibition IC50 (converted)
T1 construct: purchased Sigma (Germany) type VI-S lyophilized powder (catalogue number not given)
T1 sequence (O42275 24-633): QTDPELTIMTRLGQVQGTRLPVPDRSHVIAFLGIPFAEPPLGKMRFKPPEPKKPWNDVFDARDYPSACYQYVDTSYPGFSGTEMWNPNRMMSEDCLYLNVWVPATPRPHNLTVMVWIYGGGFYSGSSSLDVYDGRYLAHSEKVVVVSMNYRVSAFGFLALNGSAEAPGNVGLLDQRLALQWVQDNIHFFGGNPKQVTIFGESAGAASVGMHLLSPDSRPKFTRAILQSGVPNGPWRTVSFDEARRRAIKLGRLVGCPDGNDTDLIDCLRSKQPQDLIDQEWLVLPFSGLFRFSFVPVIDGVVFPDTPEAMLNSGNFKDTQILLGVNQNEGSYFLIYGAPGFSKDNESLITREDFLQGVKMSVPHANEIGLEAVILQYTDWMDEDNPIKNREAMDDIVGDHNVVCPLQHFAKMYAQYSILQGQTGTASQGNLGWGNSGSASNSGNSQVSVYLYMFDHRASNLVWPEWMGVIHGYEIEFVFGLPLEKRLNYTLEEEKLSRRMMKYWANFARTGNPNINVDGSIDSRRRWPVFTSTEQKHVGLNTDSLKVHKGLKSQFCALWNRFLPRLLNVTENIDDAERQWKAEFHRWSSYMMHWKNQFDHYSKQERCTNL
Procedure: Inhibition of acetylcholinesterase activity was determined using Ellman’s colorimetric method with slight modifications. […] Then, AChE (0.2 U/mL) was added to the wells and the absorbance was determined spectrophotometrically (BioTek Synergy microplate reader) at 405 nm. Distilled water was used as negative control. […] The IC50 values of samples leading to 50 % inhibition were calculated by plotting the percentage of inhibition against the concentrations.

human monocytic THP-1 = assay: MTT cytotoxicity assay on THP-1 cells; type: cell-based
Procedure: as §1, §2

RAW 264.7 macrophages = assay: Cell viability of LPS-activated RAW 264.7 macrophages (MTT); type: cell-based, murine; conditions: Fig. 1b, at the concentration leading to effective inhibition of NO production
Procedure: To determine whether the observed nitric oxide inhibition was not due to cytotoxic effects, MTT assay was also performed on the macrophage cells as previously described.

[3] = test system: murine macrophage RAW 264.7; assay: MTT cytotoxicity assay on RAW 264.7 cells; type: cell-based; conditions: Mus musculus
Procedure: as §1, §2

[4] = test system: nitric oxide production in LPS-stimulated RAW 264.7 macrophages; assay: Nitric oxide production in LPS-activated RAW 264.7 macrophages (Griess reagent); type: cell-based, murine; conditions: 0.5 µg/mL compound, 1 µg/mL LPS, 24 h
Procedure: Fig. 1 Inhibitory activity of three limonoids isolated from Trichilia welwitschii on nitrix oxide production. The RAW 264.7 macrophages cells were seeded in 96 well-microtitre plates and were activated by incubation in medium containing 1 µg/mL LPS alone (control) or lipopolysaccharide with different concentrations of the samples dissolved in DMSO. Nitric oxide released from macrophages was determined by measuring the nitrite concentration in culture supernatant using the Griess reagent. The concentrations of nitrite were derived from regression analysis using serial dilutions of sodium nitrite as a standard. Percentage inhibition was calculated based on the ability of compounds to inhibit nitric oxide formation by cells compared with the control (cells in media without compounds), which was considered as 0 % inhibition.
The RAW 264.7 macrophages cells were seeded in 96 well-microtitre plates and were activated by incubation in medium containing 1 µg/mL LPS alone (control) or lipopolysaccharide with different concentrations of the samples dissolved in DMSO. […]
Nitric oxide released from macrophages was determined by measuring the nitrite concentration in culture supernatant using the Griess reagent. […] The absorbance of the resultant solutions was determined on a BioTek Synergy microplate reader after 10 min at 550 nm. […]

[5] = test system: nitric oxide production from LPS-activated macrophages; conditions: read-out: IC50 against nitric oxide production; cited from earlier work
[6] = Vero kidney cells, Vero cells, MTT, read-out: Cytotoxicity LC50 Vero
[7] = THP-1, read-out: Cytotoxicity LC50 THP-1
[8] = RAW264.7, read-out: Cytotoxicity LC50 RAW 264.7
[9] = human, mouse, THP-1 and RAW 264.7 cells (range over the cell lines), range over the cell lines tested (Vero, THP-1, RAW 264.7), read-out: LC50 values (range over the cell lines)
[10] = RAW264.7, RAW 264.7 cells, MTT, read-out: Cytotoxicity LC50 RAW 264.7

Row | SMILES | CC50 [1, 6] | inhibition at 6.25 µg/mL [2] | inhibition at 12.5 µg/mL [2] | inhibition at 25 µg/mL [2] | inhibition at 50 µg/mL [2] | IC50 [2] | CC50 (human monocytic THP-1; [7]) | Cytotoxicity against RAW 264.7 macrophages by MTT assay (RAW 264.7 macrophages) | CC50 [3, 8] | CC50 [1, 9] | CC50 (human monocytic THP-1; THP-1 cells, MTT, read-out: Cytotoxicity LC50 THP-1) | CC50 [3, 10] | Amount of nitric oxide released [4] | IC50 [5]
1 | C=C1[C@@]23O[C@@H]2C[C@@H](c2ccoc2)[C@]3(C)[C@@H](OC(=O)C(O)C(C)CC)[C@H](C(=O)O)[C@]1(C)[C@](C)(C1CC(=O)O[C@]1(C)CO)[C@H](CC(=O)OC)OC(C)=O (stereo partly drawn) [Compound 1, trichilia lactone D5] | 89.2 ± 5 µg/mL (≈ 124 µM) | 28 ± 6.56% | 18 ± 8.89% | 71.7 ± 6.03% | 94.3 ± 8.15% | 26.6 µM | 81.2 ± 6.38 µg/mL (≈ 113 µM) | slight toxic effect | 23.6 ± 5.77 µg/mL (≈ 32.8 µM) | – | – | – | – | –
2 | COc1ccc(C[C@H](N)C(=O)N[C@H]2[C@@H](O)[C@H](n3cnc4c(N(C)C)ncnc43)O[C@@H]2CO)cc1 [Puromycin, reference compound] | 5.32 ± 0.9 µg/mL (≈ 11.3 µM) | – | – | – | – | – | – | – | – | 1.15 to 5.32 µg/mL (≈ 2.44 to 11.3 µM) | 0.4 ± 0.02 µg/mL (≈ 0.848 µM) | 1.15 ± 0.17 µg/mL (≈ 2.44 µM) | – | –
3 | C=C1[C@@]2(O)C(=O)C[C@@H](c3ccoc3)[C@]2(C)[C@@H](OC(=O)C(O)C(C)CC)[C@@H]2O[C@H]3CC(=O)O[C@]4(C)COC(=O)CC4[C@@]3(C)[C@]12C (stereo partly drawn) [Compound 2, rohituka 3] | 85.2 ± 6.31 µg/mL (≈ 139 µM) | 14 ± 6% | 47.3 ± 2.08% | 67 ± 4.36% | 82.7 ± 7.04% | 55.6 µM | 81.2 ± 4.04 µg/mL (≈ 132 µM) | – | 65.7 ± 3.64 µg/mL (≈ 107 µM) | – | – | – | 2.97 µM | –
4 | CC[C@H](C)C(=O)O[C@H]1C(C)(C)[C@H](CC(=O)OC)[C@@]2(C)[C@H]3CC[C@]4(C)C(=CC(=O)O[C@H]4c4ccoc4)[C@]34O[C@@]2(O)[C@@]1(O)[C@H]4OC(=O)[C@@H](C)CC [xylorumphiin I] | – | – | – | – | – | – | – | – | – | – | – | – | – | 31.3 µM
5 | CC[C@H](C)C(=O)O[C@H]1[C@@]23O[C@]4(O)[C@@](C)([C@@H](CC(=O)OC)C(C)(C)[C@H](OC(=O)C(C)C)[C@]14O)[C@H]2CC[C@]1(C)[C@H]3CC(=O)O[C@H]1c1ccoc1 [2-hydroxyxylorumphiin F] | – | – | – | – | – | – | – | – | – | – | – | – | – | 24.5 µM
6 | C=C1[C@@]23O[C@@H]2C[C@@H](c2ccoc2)[C@]3(C)[C@@H](OC(=O)C(O)C(C)CC)[C@@H]2O[C@H]3CC(=O)O[C@]4(C)COC(=O)CC4[C@@]3(C)[C@]12C (stereo partly drawn) [Compound 3, dregeanin DM4] | 75.8 ± 1.85 µg/mL (≈ 127 µM) | 30.3 ± 3.51% | 31.7 ± 5.2% | 70.7 ± 3.5% | 87 ± 8.74% | 76.3 µM | 84.5 ± 5.81 µg/mL (≈ 141 µM) | – | 61.9 ± 4.14 µg/mL (≈ 103 µM) | – | – | – | 2.93 µM | –
7 | COc1cccc2c1C(=O)c1c(O)c3c(c(O)c1C2=O)C[C@@](O)(C(=O)CO)C[C@@H]3O[C@H]1C[C@H](N)[C@H](O)[C@H](C)O1 [Doxorubicin] | 9.35 ± 0.66 µg/mL (≈ 17.2 µM) | – | – | – | – | – | – | – | – | 1.06 to 9.35 µg/mL (≈ 1.95 to 17.2 µM) | – | 1.06 ± 0.65 µg/mL (≈ 1.95 µM) | – | –
